Results: ChEMBL document CHEMBL1201862, “PubChem BioAssay data set” (2004)
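Five concentrations, 48 hours, 96-well plates. Abbreviation: GI50, concentration required for 50% inhibition of growth.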 Active and inactive are the calls of the source. No stated cut-off is given here; in the data, active = GI50 up to about 1.1 µM and inactive = higher.

How the values were obtained:
Test in all cases: growth of human tumour cells (NCI), 48 h
[1] = tested on: A498
[2] = tested on: A549
[3] = tested on: CCRF-CEM
[4] = tested on: COLO 205
[5] = tested on: DLD-1
[6] = tested on: DMS-114
[7] = tested on: DMS-273
[8] = tested on: EKVX
[9] = tested on: HCC 2998
[10] = tested on: HCT-116
[11] = tested on: HCT-15
[12] = tested on: HL-60
[13] = tested on: HOP-18
[14] = tested on: HOP-62
[15] = tested on: HOP-92
[16] = tested on: HT-29
[17] = tested on: IGROV-1
[18] = tested on: K562
[19] = tested on: KM-20L2
[20] = tested on: KM12
[21] = tested on: LOX IMVI
[22] = tested on: M19-MEL
[23] = tested on: MCF7
[24] = tested on: MOLT-4
[25] = tested on: Malme-3M
[26] = tested on: NCI-H226
[27] = tested on: NCI-H23
[28] = tested on: NCI-H460
[29] = tested on: NCI-H522
[30] = tested on: NCI/ADR-RES
[31] = tested on: OVCAR-3
[32] = tested on: OVCAR-4
[33] = tested on: OVCAR-5
[34] = tested on: OVCAR-8
[35] = tested on: RXF 393
[36] = tested on: SF-268
[37] = tested on: SF-295
[38] = tested on: SF-539
[39] = tested on: SK-MEL-28
[40] = tested on: SK-MEL-2
[41] = tested on: SK-MEL-5
[42] = tested on: SK-OV-3
[43] = tested on: SN12C
[44] = tested on: SNB-19
[45] = tested on: SNB-75
[46] = tested on: SW-620
[47] = tested on: U-251
[48] = tested on: UACC-257
[49] = tested on: UACC-62
[50] = tested on: UO-31
[51] = tested on: XF498

## COc1cc(/N=N\c2cccc(S(=O)(=O)O)c2)c(C)cc1/N=N\c1ccc(/C=C/c2ccc(/N=[N+](/[O-])c3ccc(/C=C/c4ccc(/N=N\c5cc(C)c(/N=N/c6cccc(S(=O)(=O)O)c6)cc5OC)cc4)c(S(=O)(=O)O)c3)cc2S(=O)(=O)O)cc1
[1]
  GI50: > 100 µM (inactive)
[2]
  GI50: > 100 µM (inactive)
[3]
  GI50: > 100 µM (inactive)
[4]
  GI50: > 100 µM (inactive)
[5]
  GI50: > 100 µM (inactive)
[6]
  GI50: > 100 µM (inactive)
[7]
  GI50: > 100 µM (inactive)
[8]
  GI50: > 100 µM (inactive)
[9]
  GI50: > 100 µM (inactive)
[10]
  GI50: > 100 µM (inactive)
[11]
  GI50: > 100 µM
[12]
  GI50: > 100 µM (inactive)
[13]
  GI50: > 100 µM (inactive)
[14]
  GI50: > 100 µM (inactive)
[15]
  GI50: > 77.3 µM (inactive)
[16]
  GI50: > 100 µM (inactive)
[17]
  GI50: > 100 µM (inactive)
[18]
  GI50: > 100 µM (inactive)
[19]
  GI50: > 100 µM (inactive)
[20]
  GI50: > 100 µM (inactive)
[21]
  GI50: > 100 µM (inactive)
[22]
  GI50: > 100 µM (inactive)
[23]
  GI50: > 100 µM (inactive)
[24]
  GI50: > 100 µM (inactive)
[25]
  GI50: > 100 µM (inactive)
[26]
  GI50: > 100 µM (inactive)
[27]
  GI50: > 100 µM (inactive)
[28]
  GI50: > 100 µM (inactive)
[29]
  GI50: > 93.5 µM (inactive)
[30]
  GI50: > 100 µM (inactive)
[31]
  GI50: > 100 µM (inactive)
[32]
  GI50: > 66.7 µM (inactive)
[33]
  GI50: > 84.5 µM (inactive)
[34]
  GI50: > 100 µM (inactive)
[35]
  GI50: > 100 µM (inactive)
[36]
  GI50: > 100 µM (inactive)
[37]
  GI50: > 100 µM (inactive)
[38]
  GI50: > 100 µM (inactive)
[39]
  GI50: > 100 µM (inactive)
[40]
  GI50: > 100 µM (inactive)
[41]
  GI50: > 100 µM (inactive)
[42]
  GI50: > 100 µM (inactive)
[43]
  GI50: > 100 µM (inactive)
[44]
  GI50: > 100 µM (inactive)
[45]
  GI50: > 100 µM (inactive)
[46]
  GI50: > 100 µM (inactive)
[47]
  GI50: > 100 µM (inactive)
[48]
  GI50: > 100 µM (inactive)
[49]
  GI50: > 100 µM (inactive)
[50]
  GI50: > 100 µM (inactive)
[51]
  GI50: > 100 µM (inactive)
